Experimental data taken from ChEMBL document CHEMBL1201862, “PubChem BioAssay data set” (2004).
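Where inhibition never reached the appropriate level, the endpoint shown equals the highest concentration tested. Otherwise, values were interpolated linearly from a five-concentration, 48-hour dose response in 96-well plates. GI50 marks 50% less growth.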 Activity calls are given as the source filed them. Cut-off read from the data, not from the text of the source: active = GI50 up to about 1.1 µM and inactive = higher.

What was measured:
Assay in all cases: DTP human tumour cell line panel, 48 h
UO-31 = system: UO-31
A498 = system: A498
CCRF-CEM = system: CCRF-CEM
RPMI-8226 = system: RPMI-8226
U-251 = system: U-251
MDA-N = system: MDA-N
HL-60 = system: HL-60
A549 = system: A549
SK-OV-3 = system: SK-OV-3
SF-295 = system: SF-295
MOLT-4 = system: MOLT-4
NCI-H460 = system: NCI-H460
KM12 = system: KM12
SN12C = system: SN12C
M14 = system: M14
RXF 393 = system: RXF 393
LOX IMVI = system: LOX IMVI
OVCAR-8 = system: OVCAR-8
Hs-578T = system: Hs-578T
SF-539 = system: SF-539

SMILES	GI50 (UO-31)	GI50 (A498)	GI50 (CCRF-CEM)	GI50 (RPMI-8226)	GI50 (U-251)	GI50 (MDA-N)	GI50 (HL-60)	GI50 (A549)	GI50 (SK-OV-3)	GI50 (SF-295)	GI50 (MOLT-4)	GI50 (NCI-H460)	GI50 (KM12)	GI50 (SN12C)	GI50 (M14)	GI50 (RXF 393)	GI50 (LOX IMVI)	GI50 (OVCAR-8)	GI50 (Hs-578T)	GI50 (SF-539)
CCOC(=O)CCC(C(=O)OCC)n1nnc2cc(Nc3c(C)[n+]([O-])c4ccc(Cl)cc4[n+]3[O-])ccc21 (stereo unspecified)	65.5 µM (inactive)	> 100 µM (inactive)	39.4 µM (inactive)	47.2 µM (inactive)	80 µM (inactive)	> 100 µM (inactive)	45 µM (inactive)	> 100 µM (inactive)	> 100 µM (inactive)	78 µM (inactive)	44.2 µM (inactive)	39.1 µM (inactive)	> 100 µM (inactive)	80.4 µM (inactive)	> 100 µM (inactive)	57.9 µM (inactive)	52.2 µM (inactive)	> 100 µM (inactive)	> 100 µM (inactive)	82.4 µM (inactive)
CC(C)NC(=O)OCc1c(COC(=O)NC(C)C)n(C)c2c1ccc1ccccc12	1.9 µM (inactive)	1.57 µM (inactive)	0.112 µM (active)	1.19 µM (inactive)	1.63 µM (inactive)	1.74 µM (inactive)	2.86 µM (inactive)	9.98 µM (inactive)	9.82 µM (inactive)	4.56 µM (inactive)	1.15 µM (inactive)	2.53 µM (inactive)	4.51 µM (inactive)	2.02 µM (inactive)	1.63 µM (inactive)	1.25 µM (inactive)	1.16 µM (inactive)	1.8 µM (inactive)	0.971 µM (active)	1.68 µM (inactive)
C=C(Cl)C(C)(Cl)CCC(Br)C(C)(C)Cl (stereo unspecified)	15.4 µM (inactive)	41.5 µM (inactive)	19.4 µM (inactive)	13.2 µM (inactive)	15.9 µM (inactive)	15.8 µM (inactive)	37.1 µM (inactive)	29.9 µM (inactive)	12.7 µM (inactive)	29.1 µM (inactive)	28.4 µM (inactive)	26 µM (inactive)	21.9 µM (inactive)	16.7 µM (inactive)	20 µM (inactive)	13.9 µM (inactive)	13.3 µM (inactive)	–	21.2 µM (inactive)	27.8 µM (inactive)
CCOC(=O)CN1C(=O)c2cc([N+](=O)[O-])cc3cc([N+](=O)[O-])cc(c23)C1=O	28.7 µM (inactive)	> 100 µM (inactive)	1.41 µM (inactive)	19.6 µM (inactive)	> 88.5 µM (inactive)	11 µM (inactive)	1.71 µM (inactive)	> 100 µM (inactive)	> 95.7 µM (inactive)	72.3 µM (inactive)	3.56 µM (inactive)	73.6 µM (inactive)	> 100 µM (inactive)	14.7 µM (inactive)	24.7 µM (inactive)	11.9 µM (inactive)	4.1 µM (inactive)	27.9 µM (inactive)	> 100 µM (inactive)	20 µM (inactive)
Brc1ccc2[nH]cc(-c3csc(-c4ccccn4)n3)c2c1	59.7 µM (inactive)	3.39 µM (inactive)	13.2 µM (inactive)	7.8 µM (inactive)	13.5 µM (inactive)	27.6 µM (inactive)	26.5 µM (inactive)	14.5 µM (inactive)	33 µM (inactive)	6.68 µM (inactive)	5.28 µM (inactive)	6.59 µM (inactive)	9.16 µM (inactive)	14.4 µM (inactive)	22.2 µM (inactive)	6.03 µM (inactive)	8.69 µM (inactive)	26.9 µM (inactive)	> 75.2 µM (inactive)	25.3 µM (inactive)
CCOP(=O)(OCC)C(Nc1ccc(F)cc1)c1ccccc1 (stereo unspecified)	82.2 µM (inactive)	> 100 µM (inactive)	> 100 µM (inactive)	> 100 µM (inactive)	> 100 µM (inactive)	79.3 µM (inactive)	77.4 µM (inactive)	> 100 µM (inactive)	> 100 µM (inactive)	> 100 µM (inactive)	92.9 µM (inactive)	> 100 µM (inactive)	> 100 µM (inactive)	43.8 µM (inactive)	> 100 µM (inactive)	> 100 µM (inactive)	> 100 µM (inactive)	> 100 µM (inactive)	> 100 µM (inactive)	> 100 µM (inactive)
NC1=NCC(CN2CCCC2)O1 (stereo unspecified)	> 100 µM (inactive)	> 100 µM (inactive)	> 100 µM (inactive)	> 100 µM (inactive)	> 100 µM (inactive)	> 100 µM (inactive)	> 100 µM (inactive)	> 100 µM (inactive)	> 100 µM (inactive)	> 100 µM (inactive)	> 100 µM (inactive)	> 100 µM (inactive)	> 100 µM (inactive)	> 100 µM (inactive)	> 100 µM (inactive)	> 100 µM (inactive)	> 100 µM (inactive)	> 100 µM (inactive)	> 100 µM (inactive)	> 100 µM (inactive)
CN(N)/N=N/c1[nH]cnc1[N+](=O)[O-]	61.1 µM (inactive)	> 100 µM (inactive)	5.01 µM (inactive)	22 µM (inactive)	> 100 µM (inactive)	51.2 µM (inactive)	2.99 µM (inactive)	> 100 µM (inactive)	> 100 µM (inactive)	> 100 µM (inactive)	14.6 µM (inactive)	> 100 µM (inactive)	> 100 µM (inactive)	31.8 µM (inactive)	> 100 µM (inactive)	> 100 µM (inactive)	39.2 µM (inactive)	28.4 µM (inactive)	> 100 µM (inactive)	46.6 µM (inactive)
CSC(=N/N=C(\C)c1ccc(S(=O)(=O)N(C)c2ccccc2)cc1)SC	> 61.5 µM (inactive)	> 63.8 µM (inactive)	15.6 µM (inactive)	13.1 µM (inactive)	> 51.9 µM (inactive)	> 66.2 µM (inactive)	> 43.5 µM (inactive)	> 100 µM (inactive)	> 66.5 µM (inactive)	> 64.7 µM (inactive)	17.2 µM (inactive)	> 100 µM (inactive)	> 64.4 µM (inactive)	> 66.2 µM (inactive)	> 63.1 µM (inactive)	27.7 µM (inactive)	> 69.7 µM (inactive)	> 100 µM (inactive)	> 59.4 µM (inactive)	> 52.4 µM (inactive)
CNC(=O)C(C)NC(=O)C(Cc1ccccc1)NC(=O)OC(C)(C)C (stereo unspecified)	> 100 µM (inactive)	> 100 µM (inactive)	> 100 µM (inactive)	> 100 µM (inactive)	> 100 µM (inactive)	> 100 µM (inactive)	> 100 µM (inactive)	> 100 µM (inactive)	> 100 µM (inactive)	> 100 µM (inactive)	> 100 µM (inactive)	> 100 µM (inactive)	> 100 µM (inactive)	> 100 µM (inactive)	> 100 µM (inactive)	> 100 µM (inactive)	> 100 µM (inactive)	> 100 µM (inactive)	> 100 µM (inactive)	> 100 µM (inactive)
Nc1cccc(OCC2CCCN3CCCCC23)c1 (stereo unspecified)	27.2 µM (inactive)	14.4 µM (inactive)	15.2 µM (inactive)	15.2 µM (inactive)	24.4 µM (inactive)	16 µM (inactive)	20.1 µM (inactive)	21.4 µM (inactive)	72.9 µM (inactive)	17.8 µM (inactive)	20.9 µM (inactive)	19 µM (inactive)	17.6 µM (inactive)	16.7 µM (inactive)	20 µM (inactive)	20.5 µM (inactive)	15.8 µM (inactive)	18.7 µM (inactive)	16.7 µM (inactive)	18.3 µM (inactive)
COc1ccc(OC)c(/C=C/c2ccnc3ccccc23)c1	0.458 µM (active)	0.452 µM (active)	0.337 µM (active)	0.773 µM (active)	0.374 µM (active)	0.156 µM (active)	0.2 µM (active)	0.735 µM (active)	0.403 µM (active)	0.332 µM (active)	0.519 µM (active)	0.371 µM (active)	0.312 µM (active)	0.619 µM (active)	0.375 µM (active)	0.377 µM (active)	0.365 µM (active)	0.191 µM (active)	0.34 µM (active)	0.21 µM (active)
O=C1C2CCCC2N1Cc1ccccc1 (stereo unspecified)	15.1 µM (inactive)	> 100 µM (inactive)	> 100 µM (inactive)	> 100 µM (inactive)	–	> 100 µM (inactive)	> 100 µM (inactive)	–	> 100 µM (inactive)	> 100 µM (inactive)	> 100 µM (inactive)	> 100 µM (inactive)	> 100 µM (inactive)	> 100 µM (inactive)	13.6 µM (inactive)	> 100 µM (inactive)	> 100 µM (inactive)	> 100 µM (inactive)	> 100 µM (inactive)	> 100 µM (inactive)
CN(C)CCCNc1cnc2cc3ccccc3cc2n1	–	17.5 µM (inactive)	42 µM (inactive)	33.3 µM (inactive)	36.5 µM (inactive)	32.8 µM (inactive)	32.2 µM (inactive)	26 µM (inactive)	55.1 µM (inactive)	20.7 µM (inactive)	28.4 µM (inactive)	33.3 µM (inactive)	20 µM (inactive)	33.1 µM (inactive)	21.4 µM (inactive)	21.6 µM (inactive)	14.3 µM (inactive)	19.6 µM (inactive)	32.1 µM (inactive)	23.5 µM (inactive)
